From ChEMBL document CHEMBL4673280, “Discovery and SAR studies of 2-alkyl-3-phenyl-2,4,5,6,7,8-hexahydropyrazolo[3,4-d]azepines as 5-HT inhibitors leading to the identification of a clinical candidate” (Bioorg Med Chem Lett, 2021)

Key:
[1] = target: T1, Adrenergic receptor alpha-1 (Rattus norvegicus, UniProt P15823+P23944+P43140); experiment: Displacement of […] from alpha1 adrenergic receptor in rat cortex membrane incubated for 60 mins by competitive radioligand binding assay; assay type: cell membranes
T1 sequence (P15823 whole entry): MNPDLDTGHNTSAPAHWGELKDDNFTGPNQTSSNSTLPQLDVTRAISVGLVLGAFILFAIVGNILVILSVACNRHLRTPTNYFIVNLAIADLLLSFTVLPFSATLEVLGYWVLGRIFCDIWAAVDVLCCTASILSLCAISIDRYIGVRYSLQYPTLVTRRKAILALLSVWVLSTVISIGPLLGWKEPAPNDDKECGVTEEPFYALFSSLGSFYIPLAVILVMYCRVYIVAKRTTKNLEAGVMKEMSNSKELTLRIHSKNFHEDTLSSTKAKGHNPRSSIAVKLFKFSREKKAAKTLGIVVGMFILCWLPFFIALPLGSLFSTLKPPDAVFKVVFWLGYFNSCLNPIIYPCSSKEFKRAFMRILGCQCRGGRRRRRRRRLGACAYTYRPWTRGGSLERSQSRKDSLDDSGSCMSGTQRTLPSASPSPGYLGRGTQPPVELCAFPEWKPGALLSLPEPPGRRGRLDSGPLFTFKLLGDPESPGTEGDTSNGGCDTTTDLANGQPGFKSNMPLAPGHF
T1 sequence (P23944 whole entry): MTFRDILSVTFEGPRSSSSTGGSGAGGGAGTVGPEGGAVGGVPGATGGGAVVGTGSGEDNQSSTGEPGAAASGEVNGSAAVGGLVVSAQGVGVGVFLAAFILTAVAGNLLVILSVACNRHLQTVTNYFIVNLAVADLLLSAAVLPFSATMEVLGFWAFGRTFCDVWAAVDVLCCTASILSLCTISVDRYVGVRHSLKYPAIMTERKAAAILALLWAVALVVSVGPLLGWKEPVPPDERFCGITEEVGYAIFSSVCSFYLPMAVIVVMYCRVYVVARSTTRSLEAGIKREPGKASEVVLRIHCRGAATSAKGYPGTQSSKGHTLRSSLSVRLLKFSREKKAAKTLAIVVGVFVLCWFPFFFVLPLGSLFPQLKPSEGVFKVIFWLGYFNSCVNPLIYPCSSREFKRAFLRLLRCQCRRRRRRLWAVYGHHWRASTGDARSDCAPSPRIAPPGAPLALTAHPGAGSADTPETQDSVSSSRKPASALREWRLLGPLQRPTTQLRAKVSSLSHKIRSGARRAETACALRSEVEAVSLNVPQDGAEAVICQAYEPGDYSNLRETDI
T1 sequence (P43140 whole entry): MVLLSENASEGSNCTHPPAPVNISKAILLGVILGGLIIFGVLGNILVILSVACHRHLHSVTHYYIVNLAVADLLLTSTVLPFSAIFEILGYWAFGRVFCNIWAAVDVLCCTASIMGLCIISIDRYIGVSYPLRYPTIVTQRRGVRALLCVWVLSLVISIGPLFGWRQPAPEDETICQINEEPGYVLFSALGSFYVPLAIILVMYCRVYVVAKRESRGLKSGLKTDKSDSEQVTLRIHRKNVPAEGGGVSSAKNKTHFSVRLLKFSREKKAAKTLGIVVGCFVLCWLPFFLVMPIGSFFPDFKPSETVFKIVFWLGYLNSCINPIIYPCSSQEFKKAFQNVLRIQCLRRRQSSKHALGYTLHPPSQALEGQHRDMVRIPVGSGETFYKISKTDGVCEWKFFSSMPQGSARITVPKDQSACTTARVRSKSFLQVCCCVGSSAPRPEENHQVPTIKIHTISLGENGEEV

[2] = target: T2, 5-hydroxytryptamine receptor 2C (Homo sapiens, UniProt P28335); experiment: Displacement of [3H]-ketanserin from human 5-HT2C receptor by competitive radioligand binding assay
T2 sequence (P28335 whole entry): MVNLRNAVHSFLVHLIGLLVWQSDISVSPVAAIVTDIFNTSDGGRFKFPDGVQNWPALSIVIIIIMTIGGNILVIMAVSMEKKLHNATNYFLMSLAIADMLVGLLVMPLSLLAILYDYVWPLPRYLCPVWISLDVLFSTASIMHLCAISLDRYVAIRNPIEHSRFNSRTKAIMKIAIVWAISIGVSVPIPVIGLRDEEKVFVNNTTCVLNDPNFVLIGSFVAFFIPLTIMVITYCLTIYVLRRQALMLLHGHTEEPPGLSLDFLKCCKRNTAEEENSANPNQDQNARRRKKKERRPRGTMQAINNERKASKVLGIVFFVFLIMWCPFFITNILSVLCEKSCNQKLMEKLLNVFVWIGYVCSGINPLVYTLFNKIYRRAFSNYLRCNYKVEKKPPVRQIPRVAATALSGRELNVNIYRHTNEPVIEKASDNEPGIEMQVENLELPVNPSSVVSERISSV

[3] = target: 5-hydroxytryptamine receptor 2B (Homo sapiens, UniProt P41595); experiment: Displacement of [3H]-ketanserin from human 5-HT2B receptor by competitive radioligand binding assay
Sequence of 5-hydroxytryptamine receptor 2B (P41595 whole entry): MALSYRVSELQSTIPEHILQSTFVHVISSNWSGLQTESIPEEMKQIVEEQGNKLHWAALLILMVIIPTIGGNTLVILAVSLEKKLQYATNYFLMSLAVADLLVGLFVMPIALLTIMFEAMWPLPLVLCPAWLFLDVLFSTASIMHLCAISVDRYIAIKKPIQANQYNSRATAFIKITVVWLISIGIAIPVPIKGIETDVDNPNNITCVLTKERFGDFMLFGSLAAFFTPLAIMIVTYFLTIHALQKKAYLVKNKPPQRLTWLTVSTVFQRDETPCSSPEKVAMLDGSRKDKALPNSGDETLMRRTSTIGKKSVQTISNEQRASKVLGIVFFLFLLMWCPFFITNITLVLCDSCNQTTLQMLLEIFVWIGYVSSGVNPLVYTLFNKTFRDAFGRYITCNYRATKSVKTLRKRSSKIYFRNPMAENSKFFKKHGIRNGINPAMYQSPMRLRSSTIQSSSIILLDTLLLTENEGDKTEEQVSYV

[4] = target: 5-hydroxytryptamine receptor 2A (Homo sapiens, UniProt P28223); experiment: Displacement of [3H]-ketanserin from human 5-HT2A receptor by competitive radioligand binding assay
Sequence of 5-hydroxytryptamine receptor 2A (P28223 whole entry): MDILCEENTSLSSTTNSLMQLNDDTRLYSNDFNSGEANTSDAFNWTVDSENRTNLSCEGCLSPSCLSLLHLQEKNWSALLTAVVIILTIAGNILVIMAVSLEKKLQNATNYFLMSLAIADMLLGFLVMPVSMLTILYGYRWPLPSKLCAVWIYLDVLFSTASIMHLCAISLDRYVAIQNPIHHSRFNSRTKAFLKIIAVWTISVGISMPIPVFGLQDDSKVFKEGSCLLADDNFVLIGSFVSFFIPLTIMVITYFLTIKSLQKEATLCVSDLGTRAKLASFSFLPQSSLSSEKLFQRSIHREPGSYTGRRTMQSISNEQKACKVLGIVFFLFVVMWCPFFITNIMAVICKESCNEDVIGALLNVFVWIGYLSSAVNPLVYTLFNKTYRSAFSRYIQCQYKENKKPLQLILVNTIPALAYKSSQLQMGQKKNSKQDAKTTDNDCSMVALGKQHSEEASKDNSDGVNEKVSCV

[5] = target: 5-hydroxytryptamine receptor 7 (Rattus norvegicus, UniProt P32305); experiment: Displacement of [3H]-CT from rat 5-HT7 receptor expressed in HEK293 cells by competitive radioligand binding assay; assay type: cell-based
Sequence of 5-hydroxytryptamine receptor 7 (P32305 whole entry): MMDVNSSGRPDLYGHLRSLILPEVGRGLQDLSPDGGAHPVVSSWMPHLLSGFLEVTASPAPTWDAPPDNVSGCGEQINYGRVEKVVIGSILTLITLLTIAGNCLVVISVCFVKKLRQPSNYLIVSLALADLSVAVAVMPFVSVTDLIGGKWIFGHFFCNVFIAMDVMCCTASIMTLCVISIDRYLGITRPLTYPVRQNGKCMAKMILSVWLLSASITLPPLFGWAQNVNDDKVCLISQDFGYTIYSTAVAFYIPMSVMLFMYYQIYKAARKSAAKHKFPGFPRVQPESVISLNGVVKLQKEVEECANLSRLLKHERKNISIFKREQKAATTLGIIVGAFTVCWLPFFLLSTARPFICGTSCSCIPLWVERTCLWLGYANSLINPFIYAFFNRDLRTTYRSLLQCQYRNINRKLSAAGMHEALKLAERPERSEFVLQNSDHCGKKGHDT

Compound c1ccc(-c2c3c(nn2-c2ccccc2)CCNCC3)cc1 has a Ki [1] of 10000 nM, a Ki [2] of 9000 nM and a Ki [3] of 15 nM. It also gave a Ki [4] of 600 nM and a Ki [5] of 150 nM.
